# Test results published in ChEMBL document CHEMBL1201862, “PubChem BioAssay data set” (2004).
# Calls of active or inactive are those of the source.
# Experiments:
# Bcl-2-related protein A1 [1] = biological target: T1, Bcl-2-related protein A1 (Mus musculus, UniProt Q07440); assay: small-molecule antagonists of Bfl-1/BH3 interaction – biochemical, TR-FRET, mouse Bfl-1, confirmation (AID 621);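 further: TR-FRET binding of GST-Bfl-1 to FITC-labelled Bid peptide via terbium antibody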
# T1 sequence (Q07440 whole entry): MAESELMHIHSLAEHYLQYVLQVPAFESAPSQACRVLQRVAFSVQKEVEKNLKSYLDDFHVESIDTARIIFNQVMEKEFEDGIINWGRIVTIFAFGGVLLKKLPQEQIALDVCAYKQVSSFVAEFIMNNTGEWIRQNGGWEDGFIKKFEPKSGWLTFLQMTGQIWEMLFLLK
# [2] = biological target: T2, Nucleotide-binding oligomerization domain-containing protein 1 (Homo sapiens, UniProt Q9Y239); assay: SAR analysis of compounds that inhibit NOD1 - Set 3. [Related pubchem assays (depositor defined):AID1566, AID1575, AID1578, AID1849, AID1852, AID2333, AID2335, AID2466]; assay type: functional
# T2 sequence (Q9Y239 whole entry): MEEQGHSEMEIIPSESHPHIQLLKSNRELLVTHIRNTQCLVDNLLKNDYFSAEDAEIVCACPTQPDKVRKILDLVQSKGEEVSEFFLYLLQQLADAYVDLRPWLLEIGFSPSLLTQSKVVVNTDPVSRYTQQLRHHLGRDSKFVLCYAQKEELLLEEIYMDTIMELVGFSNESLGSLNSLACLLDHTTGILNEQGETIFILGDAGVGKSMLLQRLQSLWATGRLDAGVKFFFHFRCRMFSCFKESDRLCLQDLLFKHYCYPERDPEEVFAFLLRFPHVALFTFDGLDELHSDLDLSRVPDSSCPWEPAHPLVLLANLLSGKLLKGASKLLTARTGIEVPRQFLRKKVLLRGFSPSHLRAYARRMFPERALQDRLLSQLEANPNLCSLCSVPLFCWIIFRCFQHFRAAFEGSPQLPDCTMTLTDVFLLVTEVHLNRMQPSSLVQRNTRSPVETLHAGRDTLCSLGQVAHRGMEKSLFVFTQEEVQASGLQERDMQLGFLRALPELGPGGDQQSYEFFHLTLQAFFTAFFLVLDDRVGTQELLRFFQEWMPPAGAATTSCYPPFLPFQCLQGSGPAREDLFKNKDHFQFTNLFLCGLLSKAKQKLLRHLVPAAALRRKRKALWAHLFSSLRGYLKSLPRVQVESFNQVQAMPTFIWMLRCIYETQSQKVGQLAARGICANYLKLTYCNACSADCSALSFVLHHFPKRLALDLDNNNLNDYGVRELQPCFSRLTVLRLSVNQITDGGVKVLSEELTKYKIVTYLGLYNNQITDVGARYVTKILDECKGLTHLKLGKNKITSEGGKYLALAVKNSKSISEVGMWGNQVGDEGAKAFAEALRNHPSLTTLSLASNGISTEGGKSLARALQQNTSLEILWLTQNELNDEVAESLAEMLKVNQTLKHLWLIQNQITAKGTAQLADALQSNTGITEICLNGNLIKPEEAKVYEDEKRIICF
# [3] = biological target: Nucleotide-binding oligomerization domain-containing protein 2 (Homo sapiens, UniProt Q9HC29); assay: inhibition of MDP-driven NOD2 NF-kB reporter – cell-based, set 3, SAR follow-up (AID 2799); assay type: functional
# Tumor necrosis factor = Tumor necrosis factor (Homo sapiens, UniProt P01375); assay: analog potency on TNFa NF-kB signaling – cell-based, set 3, SAR follow-up (AID 2801); assay type: functional
# Bcl-2-related protein A1 [4] = biological target: T1, Bcl-2-related protein A1; assay: Bfl-1 binding inhibitors, SAR follow-up, biochemical, fluorescence polarization (AID 1070)
# [5] = biological target: Glyceraldehyde-3-phosphate dehydrogenase (Homo sapiens, UniProt P04406)
# HEK293 = assay: SAR analysis of compounds that are cytotoxic to HEK293 - Set 3. [Related pubchem assays (depositor defined):AID1575, AID1578, AID1848, AID1849, AID2001, AID2333, AID2334, AID2335, AID2337, AID2469]; assay type: functional, cell-based; conditions: Homo sapiens
# [6] = NIH3T3 cell viability loss – ATP luminescence, mouse fibroblasts, counter-screen, dose response (AID 2010); assay type: functional, cell-based;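 further: cells exposed to compound for about 90 hours before reading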
# [7] = Trypanosoma cruzi growth suppression in host cells – NIH3T3 host cells, beta-gal luminescence, confirmation (AID 2044); assay type: functional, cell-based;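 further: intracellular parasites grown in NIH/3T3 mouse fibroblasts as host cells; luminescent beta-galactosidase reporter signal from transgenic T. cruzi replicating inside host cells; inhibitors lower the luminescence signal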
# [8] = biological target: Alkaline phosphatase, tissue-nonspecific isozyme (Homo sapiens, UniProt P05186); assay: TNAP enzyme inhibition by screening hits, dose response, selectivity assay for mouse IAP inhibitor project, biochemical, human TNAP, uHTS hits (AID 488906); assay type: functional
# [9] = biological target: Intestinal-type alkaline phosphatase (Mus musculus, UniProt P24822); assay: PubChem AID 488785; assay type: functional
# Intestinal-type alkaline phosphatase (Mus musculus, UniProt P24822), sequence (P24822 whole entry): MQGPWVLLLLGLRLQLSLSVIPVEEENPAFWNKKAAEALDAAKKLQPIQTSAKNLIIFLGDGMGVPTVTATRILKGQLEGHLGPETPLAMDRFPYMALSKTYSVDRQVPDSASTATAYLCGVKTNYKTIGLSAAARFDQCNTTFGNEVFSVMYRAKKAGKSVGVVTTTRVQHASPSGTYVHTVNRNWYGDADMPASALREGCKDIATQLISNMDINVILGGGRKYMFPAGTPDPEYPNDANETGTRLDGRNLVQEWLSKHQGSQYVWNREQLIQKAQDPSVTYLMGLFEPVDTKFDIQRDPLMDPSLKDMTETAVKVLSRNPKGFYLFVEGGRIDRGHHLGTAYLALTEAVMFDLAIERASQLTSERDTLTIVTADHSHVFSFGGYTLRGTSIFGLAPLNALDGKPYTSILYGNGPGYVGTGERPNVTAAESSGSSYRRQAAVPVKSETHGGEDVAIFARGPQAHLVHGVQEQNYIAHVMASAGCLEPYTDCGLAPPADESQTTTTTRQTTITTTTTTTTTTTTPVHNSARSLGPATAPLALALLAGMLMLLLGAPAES
# [10] = biological target: Intestinal-type alkaline phosphatase (Homo sapiens, UniProt P09923); assay: inhibition of human intestinal alkaline phosphatase – biochemical, dose response (AID 488876); assay type: functional
# [11] = biological target: T3, Dual specificity protein phosphatase 3 (Homo sapiens, UniProt P51452); assay: VHR1 phosphatase inhibitors, biochemical (AID 1878)
# T3 sequence (P51452 whole entry): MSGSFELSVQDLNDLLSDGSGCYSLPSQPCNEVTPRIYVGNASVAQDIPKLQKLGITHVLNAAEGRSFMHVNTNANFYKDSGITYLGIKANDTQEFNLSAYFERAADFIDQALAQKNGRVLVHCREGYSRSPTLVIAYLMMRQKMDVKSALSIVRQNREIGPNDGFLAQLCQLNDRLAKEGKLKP
# SUMO-activating enzyme [12] = biological target: T4, SUMO-activating enzyme (Homo sapiens, UniProt Q9UBT2); assay: blockers of UBC9-mediated SUMO conjugation – biochemical, AlphaScreen, SUMOylation inhibitor project, confirmation (AID 2018); assay type: functional
# T4 sequence (Q9UBE0 whole entry): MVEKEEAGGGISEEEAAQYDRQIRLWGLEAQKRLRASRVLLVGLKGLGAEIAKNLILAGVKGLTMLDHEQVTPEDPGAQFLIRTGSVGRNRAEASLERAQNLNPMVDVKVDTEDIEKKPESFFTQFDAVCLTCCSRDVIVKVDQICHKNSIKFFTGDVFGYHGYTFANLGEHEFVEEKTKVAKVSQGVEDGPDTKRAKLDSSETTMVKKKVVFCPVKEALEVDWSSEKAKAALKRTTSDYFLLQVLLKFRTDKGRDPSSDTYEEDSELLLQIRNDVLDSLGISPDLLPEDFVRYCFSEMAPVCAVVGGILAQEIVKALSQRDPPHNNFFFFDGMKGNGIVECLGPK
# T4 sequence (Q9UBT2 whole entry): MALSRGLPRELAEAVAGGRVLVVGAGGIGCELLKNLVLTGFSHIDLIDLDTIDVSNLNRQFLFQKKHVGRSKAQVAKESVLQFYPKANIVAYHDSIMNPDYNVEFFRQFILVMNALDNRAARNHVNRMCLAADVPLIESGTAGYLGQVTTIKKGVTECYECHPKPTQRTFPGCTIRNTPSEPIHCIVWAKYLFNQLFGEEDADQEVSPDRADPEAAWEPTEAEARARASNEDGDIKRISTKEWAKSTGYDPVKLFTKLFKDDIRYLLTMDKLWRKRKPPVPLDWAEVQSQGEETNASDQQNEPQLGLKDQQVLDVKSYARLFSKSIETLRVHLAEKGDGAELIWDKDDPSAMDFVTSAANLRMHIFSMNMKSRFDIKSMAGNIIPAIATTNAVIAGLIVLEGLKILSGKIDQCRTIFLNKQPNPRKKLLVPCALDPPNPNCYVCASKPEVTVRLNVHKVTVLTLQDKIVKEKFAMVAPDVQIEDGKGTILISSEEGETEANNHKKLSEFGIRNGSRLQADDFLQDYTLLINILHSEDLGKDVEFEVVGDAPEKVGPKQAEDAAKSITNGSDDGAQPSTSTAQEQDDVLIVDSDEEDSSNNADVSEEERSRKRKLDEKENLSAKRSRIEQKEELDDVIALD
# [13] = biological target: T5, Voltage-gated N-type calcium channel alpha-1B subunit/Amyloid beta A4 precursor protein-binding family A member 1 (Homo sapiens, UniProt Q00975+Q02410); assay type: protein assay
# T5 sequence (Q00975 whole entry): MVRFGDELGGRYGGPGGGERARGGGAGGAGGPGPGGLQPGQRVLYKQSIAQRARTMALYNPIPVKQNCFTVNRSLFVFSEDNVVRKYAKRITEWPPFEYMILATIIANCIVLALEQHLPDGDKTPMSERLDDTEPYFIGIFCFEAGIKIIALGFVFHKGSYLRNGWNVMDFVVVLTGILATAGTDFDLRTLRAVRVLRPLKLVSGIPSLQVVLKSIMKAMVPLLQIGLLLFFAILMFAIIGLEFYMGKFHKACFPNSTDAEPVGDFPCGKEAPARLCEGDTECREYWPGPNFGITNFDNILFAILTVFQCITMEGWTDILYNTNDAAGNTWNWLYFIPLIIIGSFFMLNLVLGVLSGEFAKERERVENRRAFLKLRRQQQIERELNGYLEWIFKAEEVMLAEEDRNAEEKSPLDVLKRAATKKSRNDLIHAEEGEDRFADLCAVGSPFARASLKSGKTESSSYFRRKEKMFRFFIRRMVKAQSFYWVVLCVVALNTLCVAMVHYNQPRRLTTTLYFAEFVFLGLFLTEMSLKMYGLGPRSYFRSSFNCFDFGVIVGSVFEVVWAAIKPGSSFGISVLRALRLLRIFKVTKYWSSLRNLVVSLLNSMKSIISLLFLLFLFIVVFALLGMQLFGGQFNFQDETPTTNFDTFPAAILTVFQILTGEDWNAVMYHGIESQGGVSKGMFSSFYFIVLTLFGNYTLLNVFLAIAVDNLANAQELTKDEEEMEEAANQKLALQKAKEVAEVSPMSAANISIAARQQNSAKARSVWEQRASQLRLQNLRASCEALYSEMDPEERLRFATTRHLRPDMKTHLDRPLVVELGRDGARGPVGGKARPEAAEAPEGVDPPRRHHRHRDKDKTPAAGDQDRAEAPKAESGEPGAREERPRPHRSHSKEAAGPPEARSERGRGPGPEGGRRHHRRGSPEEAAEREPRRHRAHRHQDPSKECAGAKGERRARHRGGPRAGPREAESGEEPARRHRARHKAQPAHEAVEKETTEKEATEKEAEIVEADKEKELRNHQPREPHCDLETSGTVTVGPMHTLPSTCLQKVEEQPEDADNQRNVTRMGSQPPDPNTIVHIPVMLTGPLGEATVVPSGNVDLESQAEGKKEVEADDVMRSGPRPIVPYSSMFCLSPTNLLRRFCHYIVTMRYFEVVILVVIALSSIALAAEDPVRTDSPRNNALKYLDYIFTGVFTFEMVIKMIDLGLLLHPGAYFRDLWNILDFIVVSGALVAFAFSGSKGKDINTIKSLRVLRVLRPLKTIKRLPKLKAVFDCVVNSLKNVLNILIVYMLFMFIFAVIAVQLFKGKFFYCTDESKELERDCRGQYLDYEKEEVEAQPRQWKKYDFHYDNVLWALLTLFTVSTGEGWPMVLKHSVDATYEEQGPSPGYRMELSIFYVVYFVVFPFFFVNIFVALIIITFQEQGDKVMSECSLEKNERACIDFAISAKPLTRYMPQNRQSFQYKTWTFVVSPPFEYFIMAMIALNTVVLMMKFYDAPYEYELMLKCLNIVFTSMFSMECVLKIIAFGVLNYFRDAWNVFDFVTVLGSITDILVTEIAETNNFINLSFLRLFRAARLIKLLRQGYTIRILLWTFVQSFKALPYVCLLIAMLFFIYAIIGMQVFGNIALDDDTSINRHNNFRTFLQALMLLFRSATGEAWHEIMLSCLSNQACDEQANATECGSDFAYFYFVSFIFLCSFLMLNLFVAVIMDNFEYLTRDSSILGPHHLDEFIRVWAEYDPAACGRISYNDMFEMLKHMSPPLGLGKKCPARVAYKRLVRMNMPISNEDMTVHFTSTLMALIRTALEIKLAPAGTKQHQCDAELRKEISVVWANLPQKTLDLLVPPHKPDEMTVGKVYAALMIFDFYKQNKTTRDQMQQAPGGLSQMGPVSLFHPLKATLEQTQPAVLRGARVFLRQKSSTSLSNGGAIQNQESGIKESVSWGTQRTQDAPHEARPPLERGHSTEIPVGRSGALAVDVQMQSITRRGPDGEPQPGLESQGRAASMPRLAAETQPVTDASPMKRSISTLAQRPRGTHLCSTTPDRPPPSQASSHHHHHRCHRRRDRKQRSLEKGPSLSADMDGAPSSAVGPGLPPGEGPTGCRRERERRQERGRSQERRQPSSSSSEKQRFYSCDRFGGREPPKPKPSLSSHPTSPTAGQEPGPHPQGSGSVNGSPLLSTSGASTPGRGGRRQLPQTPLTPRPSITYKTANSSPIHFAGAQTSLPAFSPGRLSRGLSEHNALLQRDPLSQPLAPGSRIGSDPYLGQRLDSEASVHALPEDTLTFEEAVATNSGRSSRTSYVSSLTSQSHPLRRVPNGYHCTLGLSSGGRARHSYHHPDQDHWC
# T5 sequence (Q02410 whole entry): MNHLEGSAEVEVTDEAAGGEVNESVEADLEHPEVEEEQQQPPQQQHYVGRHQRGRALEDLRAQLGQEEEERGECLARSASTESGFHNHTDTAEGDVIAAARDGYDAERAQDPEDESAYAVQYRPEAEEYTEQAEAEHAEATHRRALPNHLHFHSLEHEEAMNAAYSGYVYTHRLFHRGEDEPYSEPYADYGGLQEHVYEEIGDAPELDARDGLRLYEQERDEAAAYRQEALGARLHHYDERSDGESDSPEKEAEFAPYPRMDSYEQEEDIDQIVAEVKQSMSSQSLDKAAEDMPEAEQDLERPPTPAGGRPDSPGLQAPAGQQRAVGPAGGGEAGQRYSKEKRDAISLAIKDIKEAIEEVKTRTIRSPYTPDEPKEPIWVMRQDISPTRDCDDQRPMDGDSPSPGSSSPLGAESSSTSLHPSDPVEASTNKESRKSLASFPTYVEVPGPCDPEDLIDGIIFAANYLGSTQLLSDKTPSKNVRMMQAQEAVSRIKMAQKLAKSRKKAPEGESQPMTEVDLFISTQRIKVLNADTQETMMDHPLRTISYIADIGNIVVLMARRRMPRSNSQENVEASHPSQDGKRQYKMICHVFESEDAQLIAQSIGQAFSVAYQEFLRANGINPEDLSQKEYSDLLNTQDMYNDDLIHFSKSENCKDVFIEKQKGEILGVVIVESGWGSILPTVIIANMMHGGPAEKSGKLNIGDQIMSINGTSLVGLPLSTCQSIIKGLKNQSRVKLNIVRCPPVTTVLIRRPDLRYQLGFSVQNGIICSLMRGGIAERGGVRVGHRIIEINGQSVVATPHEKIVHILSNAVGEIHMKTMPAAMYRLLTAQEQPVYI
# [14] = biological target: Likely tRNA 2'-phosphotransferase (Candida albicans (strain SC5314 / ATCC MYA-2876) (Yeast), UniProt Q5A7N4); assay: inhibition of Candida TPT1 enzyme activity – biochemical, fluorescence polarization, dose response (AID 2160)
# [15] = biological target: T5, Voltage-gated N-type calcium channel alpha-1B subunit/Amyloid beta A4 precursor protein-binding family A member 1; assay type: protein assay; remark: listed apart in the source
# [16] = biological target: T6, Dual specificity protein phosphatase 6 (Rattus norvegicus, UniProt Q64346); assay: inhibition of rat DUSP6 enzyme activity – biochemical, in vitro, primary screen (AID 425)
# T6 sequence (Q64346 whole entry): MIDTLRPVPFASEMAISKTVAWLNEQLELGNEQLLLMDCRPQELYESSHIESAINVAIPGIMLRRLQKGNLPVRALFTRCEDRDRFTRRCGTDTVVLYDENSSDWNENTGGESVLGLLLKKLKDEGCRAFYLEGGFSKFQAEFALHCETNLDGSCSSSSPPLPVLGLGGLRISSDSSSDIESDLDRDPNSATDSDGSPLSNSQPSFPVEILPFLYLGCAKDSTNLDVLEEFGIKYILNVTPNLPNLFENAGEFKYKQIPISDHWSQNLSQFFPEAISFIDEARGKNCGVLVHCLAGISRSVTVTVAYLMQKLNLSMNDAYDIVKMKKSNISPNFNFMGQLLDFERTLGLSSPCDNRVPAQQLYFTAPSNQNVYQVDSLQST
# [17] = biological target: T7, Small ubiquitin-related modifier 1 (Homo sapiens, UniProt P63165); assay: SUMO1 protein interaction blockers, potency – biochemical, fluorescence polarization, uHTS hits, dose response (AID 624382); assay type: functional; conditions: read-out: IC50_Mean
# T7 sequence (P63165 whole entry): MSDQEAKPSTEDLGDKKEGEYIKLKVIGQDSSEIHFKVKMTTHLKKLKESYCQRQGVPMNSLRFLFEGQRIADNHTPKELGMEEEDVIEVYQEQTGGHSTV
# SUMO-activating enzyme [18] = biological target: T4, SUMO-activating enzyme; assay: blockers of SAE1/SAE2–UBC9 SUMO transfer – biochemical, HTRF, uHTS, primary screen (AID 2006); assay type: protein-complex assay
# [19] = biological target: T7, Small ubiquitin-related modifier 1; assay: SUMO1 protein-protein binding blockers, potency – biochemical, FRET, dose response (AID 624383); assay type: functional; conditions: read-out: IC50_Mean
# [20] = biological target: T3, Dual specificity protein phosphatase 3; assay: VHR1 phosphatase inhibitors, primary screen, biochemical, absorbance, uHTS (AID 1654)
# [21] = biological target: Guanyl-specific ribonuclease T1 (Aspergillus oryzae (strain ATCC 42149 / RIB 40), UniProt P00651); assay: inhibition of ribonuclease T1 activity – biochemical, fluorescence polarization, 1536-well, counter-screen for TPT1 inhibitor project, dose response (AID 2167)
smiles,measurement,setting,value
Nc1cc(-c2ccccc2)nn1S(=O)(=O)c1c(F)c(F)c(F)c(F)c1F,IC50,Bcl-2-related protein A1 [1],5.83 µM (active)
same,IC50,[2],> 20 µM (inactive)
same,IC50,[3],> 20 µM (inactive)
same,IC50,Tumor necrosis factor,> 20 µM (inactive)
same,IC50,Bcl-2-related protein A1 [4],> 100 µM (not active)
same,IC50,[5],> 100 µM (not active)
same,IC50,HEK293,> 20 µM (inactive)
COc1cc(NC(S)=NCCC(c2ccccc2)c2ccccc2)cc(OC)c1,EC50,[6],> 60 µM (not active)
same,EC50,[7],2.02 µM (active)
same,IC50,[8],12.2 µM (active)
same,IC50,[9],13.7 µM (active)
same,IC50,[10],> 100 µM (inactive)
Cc1cc(C)n(Cc2ccc(C(=O)N/N=C/c3ccc(-c4ccc([N+](=O)[O-])cc4)o3)o2)n1,IC50,[11],6.64 µM (active)
same,IC50,SUMO-activating enzyme [12],5.62 µM (active)
same,IC50,[13],14 µM (active)
same,IC50,[14],3.55 µM (active)
same,IC50,[15],20.2 µM (active)
same,IC50,[16],40 µM (active)
same,IC50,[17],> 66.6 µM (inactive)
same,IC50,SUMO-activating enzyme [18],33 µM (active)
same,IC50,[19],3.17 µM (active)
same,IC50,[20],123 µM (inactive)
same,IC50,[21],> 55.7 µM (not active)
